From ChEMBL document CHEMBL5096227, “Discovery of Ervogastat (PF-06865571): A Potent and Selective Inhibitor of Diacylglycerol Acyltransferase 2 for the Treatment of Non-alcoholic Steatohepatitis” (J Med Chem, 2022)

What was measured:
[1] = physchem; conditions: buffer, pH 7.4
Description: Lipophilicity, logD of compound at pH 7.4 by shake flask method

[2] = Apparent permeability in MDCK-II cells; assay type: ADME, cell-based, Canis lupus familiaris; conditions: dog
[3] = Apparent intrinsic clearance in human liver microsomes in presence of NADPH; assay type: ADME, Microsome; conditions: read-out: CLH
[4] = Apparent intrinsic clearance in cryopreserved human hepatocytes measured per million cells at 1 uM incubated for 4 hrs by LC-MS/MS analysis; assay type: ADME, cell-based, Hepatocyte; conditions: for hepatocyte CLint at 1 µM: cryopreserved human hepatocytes, read-out: CLH
[5] = biological target: T1, Diacylglycerol O-acyltransferase 2 (Homo sapiens, UniProt Q96PD7); assay: Inhibition of human DGAT2 expressed in Sf9 insect cell membrane using [1-14C]decanoyl-CoA and 1,2-didecanoyl-sn-glycerol as substrates assessed as incorporation of [1-14C]decanoyl into triacylglycerol preincubated for 120 mins followed by substrate addition and measured after 40 mins by scintillation counting method; assay type: cell membranes
T1 sequence (Q96PD7 whole entry): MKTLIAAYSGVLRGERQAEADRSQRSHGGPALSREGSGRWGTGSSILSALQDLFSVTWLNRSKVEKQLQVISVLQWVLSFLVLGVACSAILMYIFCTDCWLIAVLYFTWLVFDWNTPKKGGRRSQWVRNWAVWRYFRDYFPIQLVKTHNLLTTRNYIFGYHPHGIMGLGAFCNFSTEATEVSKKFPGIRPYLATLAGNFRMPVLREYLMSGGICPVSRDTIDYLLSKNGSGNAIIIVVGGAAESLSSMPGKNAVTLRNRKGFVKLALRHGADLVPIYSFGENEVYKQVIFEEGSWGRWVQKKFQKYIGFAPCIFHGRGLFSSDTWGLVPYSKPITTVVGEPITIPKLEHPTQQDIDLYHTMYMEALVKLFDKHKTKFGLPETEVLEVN

[6] = biological target: T2, Diacylglycerol O-acyltransferase 1 (Homo sapiens, UniProt O75907); assay: Inhibition of human DGAT1 using [1-14C]decanoyl-CoA and 1,2-didecanoyl-sn-glycerol as substrates assessed as incorporation of [1-14C]decanoyl […] preincubated for 30 mins followed by substrate addition and measured after 30 to 90 mins by scintillation counting method
T2 sequence (O75907 whole entry): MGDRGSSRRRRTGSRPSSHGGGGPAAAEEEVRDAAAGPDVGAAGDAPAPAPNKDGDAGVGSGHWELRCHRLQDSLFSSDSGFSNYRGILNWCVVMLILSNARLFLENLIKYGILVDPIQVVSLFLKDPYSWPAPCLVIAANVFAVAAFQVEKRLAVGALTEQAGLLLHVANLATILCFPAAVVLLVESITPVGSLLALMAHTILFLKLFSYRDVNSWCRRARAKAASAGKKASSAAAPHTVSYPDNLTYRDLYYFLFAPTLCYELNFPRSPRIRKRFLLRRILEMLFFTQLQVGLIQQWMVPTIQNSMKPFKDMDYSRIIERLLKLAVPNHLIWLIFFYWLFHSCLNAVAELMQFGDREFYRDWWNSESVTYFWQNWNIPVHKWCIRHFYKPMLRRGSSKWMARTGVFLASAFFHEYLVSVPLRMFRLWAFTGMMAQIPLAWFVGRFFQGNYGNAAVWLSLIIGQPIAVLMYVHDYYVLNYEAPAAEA

[7] = Oral bioavailability in Wistar Han rat at 5 mg/kg; assay type: ADME, organism-based; conditions: in vivo
[8] = biological target: T3, Cytochrome P450 1A2 (Homo sapiens, UniProt P05177); assay: Reversible inhibition of CYP1A2 in pooled human liver microsomes using […] as substrate incubated for 20 mins in presence of NADPH by HPLC-MS/MS analysis; assay type: ADME, Microsome
T3 sequence (P05177 whole entry): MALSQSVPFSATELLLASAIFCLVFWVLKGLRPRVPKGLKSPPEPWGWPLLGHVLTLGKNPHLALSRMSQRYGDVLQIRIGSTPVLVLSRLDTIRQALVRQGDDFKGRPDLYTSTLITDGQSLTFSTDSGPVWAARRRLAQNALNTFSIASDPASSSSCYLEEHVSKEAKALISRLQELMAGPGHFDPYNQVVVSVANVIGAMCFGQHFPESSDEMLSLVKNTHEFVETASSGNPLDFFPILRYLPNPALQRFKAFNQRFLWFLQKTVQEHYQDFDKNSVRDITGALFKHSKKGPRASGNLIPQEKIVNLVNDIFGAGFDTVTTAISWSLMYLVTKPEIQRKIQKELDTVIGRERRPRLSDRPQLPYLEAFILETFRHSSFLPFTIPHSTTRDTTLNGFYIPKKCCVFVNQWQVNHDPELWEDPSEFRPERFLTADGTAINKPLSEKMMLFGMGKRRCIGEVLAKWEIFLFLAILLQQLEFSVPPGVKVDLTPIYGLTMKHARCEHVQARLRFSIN

[9] = biological target: CYP3A4/5 (Homo sapiens, UniProt P08684+P20815); assay: Reversible inhibition of CYP3A4/5 in pooled human liver microsomes; assay type: ADME, Microsome
[10] = biological target: Cytochrome P450 2C9 (Homo sapiens, UniProt P11712); assay: Reversible inhibition of CYP2C9 in pooled human liver microsomes using 4-Hydroxydiclofenac as substrate incubated for 10 mins in presence of NADPH by HPLC-MS/MS analysis; assay type: ADME, Microsome
[11] = Half life in human; assay type: ADME
[12] = Dissociation constant, pKa of compound; assay type: physicochemical
[13] = biological target: T4, Cytochrome P450 2B6 (Homo sapiens, UniProt P20813); assay: Reversible inhibition of CYP2B6 in pooled human liver microsomes; assay type: ADME, Microsome
T4 sequence (P20813 whole entry): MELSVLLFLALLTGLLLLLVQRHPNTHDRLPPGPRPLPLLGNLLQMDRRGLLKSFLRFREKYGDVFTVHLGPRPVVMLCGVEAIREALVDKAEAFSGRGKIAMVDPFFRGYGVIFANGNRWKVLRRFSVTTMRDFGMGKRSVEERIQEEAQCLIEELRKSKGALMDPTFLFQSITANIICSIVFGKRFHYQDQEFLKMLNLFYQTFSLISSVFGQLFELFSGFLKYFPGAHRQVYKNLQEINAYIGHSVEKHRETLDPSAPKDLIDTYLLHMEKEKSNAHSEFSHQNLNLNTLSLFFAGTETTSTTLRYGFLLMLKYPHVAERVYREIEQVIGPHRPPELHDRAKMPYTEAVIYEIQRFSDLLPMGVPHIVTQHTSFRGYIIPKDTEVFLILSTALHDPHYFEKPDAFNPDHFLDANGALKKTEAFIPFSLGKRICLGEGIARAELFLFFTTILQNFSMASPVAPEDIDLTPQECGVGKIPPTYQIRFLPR

[14] = Drug metabolism in cryopreserved human hepatocytes assessed as O-deethylation mediated pyridin-3-ol metabolite formation at 10 uM measured for 240 mins by HPLC-UV-MS analysis; assay type: ADME, cell-based, Hepatocyte; conditions: 4 h
[15] = Drug metabolism in cryopreserved human hepatocytes assessed as O-dearylation mediated oxidative metabolite formation at 10 uM measured for 240 mins by HPLC-UV-MS analysis; assay type: ADME, cell-based, Hepatocyte; conditions: 4 h
[16] = Plasma clearance in Wistar Han rat; assay type: ADME
[17] = biological target: Cytochrome P450 2C19 (Homo sapiens, UniProt P33261); assay: Reversible inhibition of CYP2C19 in pooled human liver microsomes using 4-Hydroxymephenytoin as substrate incubated for 20 mins in presence of NADPH by HPLC-MS/MS analysis; assay type: ADME, Microsome
[18] = Drug metabolism in cryopreserved human hepatocytes assessed as oxidation of primary alcohol to carboxylic acid mediated metabolite formation at 10 uM measured for 240 mins by HPLC-UV-MS analysis; assay type: ADME, cell-based, Hepatocyte; conditions: 4 h
[19] = Volume of distribution at steady state in Wistar Han rat; assay type: ADME; conditions: in vivo, read-out: Vdss
[20] = biological target: T5, Cytochrome P450 2C8 (Homo sapiens, UniProt P10632); assay: Reversible inhibition of CYP2C8 in pooled human liver microsomes using desethylamodiaquine as substrate incubated for 10 mins in presence of NADPH by HPLC-MS/MS analysis; assay type: ADME, Microsome
T5 sequence (P10632 whole entry): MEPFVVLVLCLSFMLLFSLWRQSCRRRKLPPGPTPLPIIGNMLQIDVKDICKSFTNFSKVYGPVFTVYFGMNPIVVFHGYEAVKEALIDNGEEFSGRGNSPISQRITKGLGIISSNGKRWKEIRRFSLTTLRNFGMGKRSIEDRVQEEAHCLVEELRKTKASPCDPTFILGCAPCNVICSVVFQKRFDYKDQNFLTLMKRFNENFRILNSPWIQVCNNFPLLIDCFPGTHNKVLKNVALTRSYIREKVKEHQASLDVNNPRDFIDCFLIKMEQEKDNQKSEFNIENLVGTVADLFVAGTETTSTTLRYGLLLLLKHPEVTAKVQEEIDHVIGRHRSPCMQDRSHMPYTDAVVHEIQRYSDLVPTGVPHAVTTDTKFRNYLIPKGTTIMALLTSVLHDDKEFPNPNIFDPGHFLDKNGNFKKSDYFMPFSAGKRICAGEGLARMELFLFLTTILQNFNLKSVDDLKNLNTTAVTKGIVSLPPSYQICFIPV

[21] = Half life in Wistar Han rat; assay type: ADME; conditions: in vivo
[22] = biological target: Cytochrome P450 2D6 (Homo sapiens, UniProt P10635); assay: Reversible inhibition of CYP2D6 in pooled human liver microsomes using dextrorphan as substrate incubated for 14 mins in presence of NADPH by HPLC-MS/MS analysis; assay type: ADME, Microsome
[23] = Lipophilicity, logD of compound; assay type: physicochemical; conditions: octanol/water
[24] = Apparent intrinsic clearance in human hepatocytes measured per million cells; assay type: ADME, cell-based, Hepatocyte; conditions: read-out: CLH
[25] = Apparent permeability of compound; assay type: ADME; conditions: not told
[26] = Apparent intrinsic clearance in human liver microsomes; assay type: ADME, Microsome; conditions: read-out: CLH

Sequence of Cytochrome P450 2C9 (P11712 whole entry): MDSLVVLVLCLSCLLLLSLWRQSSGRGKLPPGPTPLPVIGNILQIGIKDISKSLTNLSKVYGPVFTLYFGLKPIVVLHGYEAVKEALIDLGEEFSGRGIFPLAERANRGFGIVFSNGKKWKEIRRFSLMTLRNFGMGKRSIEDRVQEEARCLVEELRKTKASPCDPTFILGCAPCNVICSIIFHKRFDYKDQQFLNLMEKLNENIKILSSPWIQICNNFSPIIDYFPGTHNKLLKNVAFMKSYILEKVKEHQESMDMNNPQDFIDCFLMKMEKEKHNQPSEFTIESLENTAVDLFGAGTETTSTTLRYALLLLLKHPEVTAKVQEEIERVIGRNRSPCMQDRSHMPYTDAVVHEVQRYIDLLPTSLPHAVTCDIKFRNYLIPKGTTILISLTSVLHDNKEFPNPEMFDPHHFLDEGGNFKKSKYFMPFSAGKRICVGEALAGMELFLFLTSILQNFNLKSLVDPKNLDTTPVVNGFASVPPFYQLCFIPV
Sequence of Cytochrome P450 2D6 (P10635 whole entry): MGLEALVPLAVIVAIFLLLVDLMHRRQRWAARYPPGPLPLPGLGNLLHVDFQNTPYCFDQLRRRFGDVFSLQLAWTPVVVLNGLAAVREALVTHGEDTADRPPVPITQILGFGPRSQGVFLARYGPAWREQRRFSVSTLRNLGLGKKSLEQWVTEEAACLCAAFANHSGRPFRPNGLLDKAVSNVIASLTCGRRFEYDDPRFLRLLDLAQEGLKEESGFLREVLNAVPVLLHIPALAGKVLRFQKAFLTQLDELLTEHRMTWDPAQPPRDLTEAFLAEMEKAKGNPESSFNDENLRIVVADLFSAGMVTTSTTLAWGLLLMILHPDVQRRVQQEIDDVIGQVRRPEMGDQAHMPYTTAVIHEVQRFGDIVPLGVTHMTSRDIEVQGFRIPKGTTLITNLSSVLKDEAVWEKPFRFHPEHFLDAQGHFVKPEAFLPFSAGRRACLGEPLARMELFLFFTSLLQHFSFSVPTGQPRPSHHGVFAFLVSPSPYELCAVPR
Sequence of Cytochrome P450 2C19 (P33261 whole entry): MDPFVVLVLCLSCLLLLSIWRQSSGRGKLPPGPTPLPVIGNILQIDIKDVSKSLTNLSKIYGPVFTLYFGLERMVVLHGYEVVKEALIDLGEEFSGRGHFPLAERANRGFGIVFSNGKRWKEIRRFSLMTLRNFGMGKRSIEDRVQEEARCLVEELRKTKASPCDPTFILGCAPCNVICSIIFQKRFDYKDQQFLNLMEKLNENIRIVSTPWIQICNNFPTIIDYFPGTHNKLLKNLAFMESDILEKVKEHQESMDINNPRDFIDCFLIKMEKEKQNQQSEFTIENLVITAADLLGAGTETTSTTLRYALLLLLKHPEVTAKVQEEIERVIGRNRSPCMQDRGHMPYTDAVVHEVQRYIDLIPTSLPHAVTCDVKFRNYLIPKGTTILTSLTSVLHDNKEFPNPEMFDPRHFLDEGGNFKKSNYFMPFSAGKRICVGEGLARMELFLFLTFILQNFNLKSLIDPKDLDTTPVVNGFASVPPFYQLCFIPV

Row | logD [1] | Papp ([2]; MDCK, read-out: Papp) | hepatocyte CLint at 1 µM [4] | IC50 [5] | SMILES | further results
1 | 1.6 | 5 ×10⁻⁶ cm/s | 5 µL/min/1e6 cells |  | CCOc1cccnc1Oc1cncc(-c2ncc(C(=O)NC3CCS(=O)(=O)C3)cn2)c1 (racemic) | 
2 | 1.9 | 15 ×10⁻⁶ cm/s | 8 µL/min/1e6 cells |  | CCOc1cccnc1Oc1cncc(-c2ncc(C(=O)NC(C)(C)CS(C)(=O)=O)cn2)c1 | 
3 | 2 | 21 ×10⁻⁶ cm/s | 8 µL/min/1e6 cells | 6.6 nM | CCOc1cccnc1Oc1cncc(-c2ncc(C(=O)NC(C)(C)CO)cn2)c1 | IC50 [6]: > 50000 nM; bioavailability [7]: 29%; IC50 [8]: > 30000 nM; IC50 [9]: > 30000 nM; IC50 [10]: 7800 nM; half-life [11]: > 240 min; pKa [12]: 2.5; IC50 [13]: > 24000 nM; Drug metabolism [14]: Metabolite_Detected; Drug metabolism [15]: Metabolite_Notdetected; clearance [16]: 57 mL/min/kg; IC50 [17]: > 30000 nM; Drug metabolism [18]: Metabolite_Detected; Vd [19]: 1.2 L/kg; IC50 [20]: > 30000 nM; microsomal CLint [3]: 14 µL/min/mg; half-life [21]: 24 min; IC50 [22]: > 30000 nM
4 |  | 15 ×10⁻⁶ cm/s | 7 µL/min/1e6 cells | 84.6 nM | CCNC(=O)c1cnc(-c2cncc(Oc3ncccc3OCC)c2)nc1 | 
5 | 2.6 | 20 ×10⁻⁶ cm/s | 7 µL/min/1e6 cells | 353 nM | CCOc1cccnc1Oc1cncc(-c2ncc(C(=O)NC3CCOCC3)cn2)c1 | 
6 | 1.9 | 14 ×10⁻⁶ cm/s | 5 µL/min/1e6 cells |  | CCOc1cccnc1Oc1cncc(-c2ncc(C(=O)N[C@@H]3CCOC3)cn2)c1 | 
7 | 1.7 | 1 ×10⁻⁶ cm/s | < 3 µL/min/1e6 cells | 501 nM | CCOc1cccnc1Oc1cncc(-c2ncc(C(=O)NC3CC(=O)N(C)C3)cn2)c1 (racemic) | 

The remaining lines, values behind:

Row | SMILES | logD [1] | Papp ([2]; MDCK, read-out: Papp) | hepatocyte CLint at 1 µM [4] | IC50 [5] | further results
8 | CCOc1ccccc1O[C@@H]1CCCN(c2ncc(C(=O)NC(C)(C)CO)cn2)C1 | 2.8 | 19 ×10⁻⁶ cm/s |  |  | microsomal CLint [3]: 121 µL/min/mg
9 | CCOc1cccnc1Oc1cncc(-c2ncc(C(=O)NC3CCCOC3)cn2)c1 (racemic) | 2.2 | 23 ×10⁻⁶ cm/s | 11 µL/min/1e6 cells | 11.5 nM | 
10 | CCOc1ccccc1O[C@@H]1CCCN(c2ncc(C(=O)NCc3cccc(C(=O)O)c3)cn2)C1 |  |  |  |  | logD [23]: 0.7; hepatocyte CLint [24]: < 12 µL/min/1e6 cells; Papp [25]: 2 ×10⁻⁶ cm/s; microsomal CLint [26]: 9 µL/min/mg
11 | CCOc1cccnc1O[C@@H]1CCCN(c2ncc(C(=O)NC(C)(C)CO)cn2)C1 | 1.8 |  |  | 31.8 nM | microsomal CLint [3]: 108 µL/min/mg
12 | CCOc1cccnc1Oc1cncc(-c2ncc(C(=O)NC3(CO)CCOC3)cn2)c1 (stereo in doubt; 4) | 1.6 | 4 ×10⁻⁶ cm/s | < 3 µL/min/1e6 cells |  | 
13 | CCOc1cccnc1Oc1cncc(-c2ncc(C(=O)NC3(CO)CCOC3)cn2)c1 (stereo in doubt; 5) |  |  |  |  | CLH ([4]; hepatocytes, 4 h, 1 µM): < 4 µL/min; Papp ([2]; mdck-ii): 3 10^-6 cm/s
